Measurements from article PMC6501583 (Journal of medicinal chemistry, 2019).
“Also recorded” adds a separate entry of the source.

Legend:
rat mGlu7 = rat mGlu7 (Rattus norvegicus, UniProt P35400); assay type: cell-based
[1] = Predicted hepatic clearance; assay type: in vitro ADME; conditions: for rat CLhep: Table 1, predicted hepatic clearance; for Rat CLhep: Table 2, predicted hepatic clearance
Rat plasma:brain level = assay type: in vivo; conditions: rat PBL IV cassette
5-HT2B receptor = 5-HT2B receptor (Homo sapiens, UniProt P41595); experiment: Eurofins lead profiling panel of 68 GPCRs, ion channels, and transporters; assay type: binding; conditions: at 10 μM; only target of 68 above 50%
Sequence of 5-HT2B receptor (P41595 whole entry): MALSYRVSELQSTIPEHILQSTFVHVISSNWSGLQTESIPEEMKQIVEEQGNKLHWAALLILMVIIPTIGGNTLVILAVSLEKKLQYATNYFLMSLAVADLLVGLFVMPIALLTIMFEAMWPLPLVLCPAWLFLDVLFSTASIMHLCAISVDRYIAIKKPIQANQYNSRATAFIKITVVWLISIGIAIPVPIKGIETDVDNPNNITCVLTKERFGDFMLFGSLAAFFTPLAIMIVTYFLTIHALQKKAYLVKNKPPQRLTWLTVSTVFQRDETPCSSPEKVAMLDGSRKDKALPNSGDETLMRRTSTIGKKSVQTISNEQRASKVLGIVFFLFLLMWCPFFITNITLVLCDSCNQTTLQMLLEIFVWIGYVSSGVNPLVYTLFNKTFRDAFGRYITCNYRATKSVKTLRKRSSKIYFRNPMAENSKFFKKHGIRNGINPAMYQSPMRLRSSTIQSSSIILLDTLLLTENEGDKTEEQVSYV

mice [2] = experiment: Elevated zero maze; assay type: in vivo, mouse
mice [3] = experiment: Light/dark box assay; assay type: in vivo, mouse; conditions: vs vehicle
[4] = Discrete iv and po pharmacokinetics in rat; assay type: in vivo; conditions: plasma, 0.2 mg/kg
[5] = Predicted hepatic clearance; assay type: in vitro ADME
mGlu1–6,8 = experiment: Selectivity versus the other seven mGlu receptors; assay type: cell-based
mice [6] = experiment: Mouse marble-burying assay; assay type: in vivo; conditions: vs vehicle
30 mg/kg = assay type: in vivo, rat
[7] = system: hippocampus (native tissues); conditions: cited from earlier work

Sequence of rat mGlu7 (P35400 35-915): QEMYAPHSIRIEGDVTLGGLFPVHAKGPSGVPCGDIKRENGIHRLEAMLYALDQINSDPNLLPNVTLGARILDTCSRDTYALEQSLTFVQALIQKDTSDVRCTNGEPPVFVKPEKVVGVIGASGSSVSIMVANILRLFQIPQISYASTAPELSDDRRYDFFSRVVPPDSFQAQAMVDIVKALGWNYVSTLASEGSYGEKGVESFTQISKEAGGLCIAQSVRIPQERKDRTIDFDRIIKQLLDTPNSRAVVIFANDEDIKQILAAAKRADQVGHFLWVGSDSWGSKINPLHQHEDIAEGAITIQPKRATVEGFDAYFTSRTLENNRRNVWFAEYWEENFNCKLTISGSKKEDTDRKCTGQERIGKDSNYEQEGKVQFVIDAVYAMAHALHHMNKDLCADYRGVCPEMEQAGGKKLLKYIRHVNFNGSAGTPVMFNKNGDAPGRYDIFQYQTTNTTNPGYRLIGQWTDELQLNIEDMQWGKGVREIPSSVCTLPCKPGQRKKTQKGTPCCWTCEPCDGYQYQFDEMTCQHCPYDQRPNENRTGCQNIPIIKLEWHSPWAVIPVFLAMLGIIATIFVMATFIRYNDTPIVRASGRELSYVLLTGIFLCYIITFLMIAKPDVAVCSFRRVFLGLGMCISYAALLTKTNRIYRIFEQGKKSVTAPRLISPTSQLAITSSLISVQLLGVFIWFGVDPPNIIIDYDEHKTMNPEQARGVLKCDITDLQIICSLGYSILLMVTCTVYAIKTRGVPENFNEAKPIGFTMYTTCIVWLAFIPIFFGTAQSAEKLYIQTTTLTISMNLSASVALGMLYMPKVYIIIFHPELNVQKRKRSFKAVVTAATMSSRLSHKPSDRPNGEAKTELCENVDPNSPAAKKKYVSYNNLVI

COc1ccc(CNc2cc(OC(F)(F)F)ccc2-n2cncn2)cc1OC [6a]
% L-AP4 min (rat mGlu7): 17 ± 3%

COc1ccc(CCCNc2cc(OC(F)(F)F)ccc2-n2cncn2)cc1OC [6b]
rat CLhep [1]: 68.1 mL/min/kg

COc1cc(F)c(CCCNc2cc(OC(F)(F)F)ccc2-n2cncn2)cc1OC [6c]
rat CLhep [1]: 66.4 mL/min/kg

COc1cc(F)c(OCCNc2cc(OC(F)(F)F)ccc2-n2cncn2)cc1OC [6d]
rat CLhep [1]: 66.4 mL/min/kg

COc1cc(C(=O)Nc2cc(OC(F)(F)F)ccc2-n2cncn2)ccc1OCC(F)(F)F [7a]
mGlu7 NAM activity (in words) (rat mGlu7): inactive

COc1cc(C(=O)Nc2cc(OC(F)(F)F)ccc2-n2cncn2)ccc1OCC(C)(C)C [7b]
mGlu7 NAM activity (in words) (rat mGlu7): inactive

COc1cc(C(=O)Nc2cc(OC(F)(F)F)ccc2-n2cncn2)ccc1OCC(C)C [7c]
Rat CLhep [1]: 38.4 mL/min/kg | mGlu7 NAM activity (in words) (rat mGlu7): restored mGlu7 NAM activity

COc1cc(C(=O)Nc2cc(OC(F)(F)F)ccc2-n2cncn2)ccc1OCC1CC1 [7d, N-(2-(1H-1,2,4-Triazol-1-yl)-5-(trifluoromethoxy)phenyl)-4-(cyclopropylmethoxy)-3-methoxybenzamide]
[brain]tot (Rat plasma:brain level): 375 nM | compound activity at 5-HT2B receptor (5-HT2B receptor): greater than 50% | time spent in the open arms (mice [2]; 3 mg/kg ip, vs VEH p < 0.05, 3 mg/kg): increased total time spent in the open arms; also recorded: increases time spent in the open arms | overall locomotion / distance traveled (mice [2]; 10 mg/kg ip, 10 mg/kg): decrease in overall locomotion; also recorded: decreased distance traveled | total time spent in the light side of the chamber (mice [3]; 3 mg/kg ip): increased total time spent in the light side of the chamber | clearance at 24 h [4]: 31.5 mL/min/kg | predicted hepatic clearance, rat CLhep [1]: 15.9 mL min^–1 kg^–1 | Rat CLhep [1]: 15.9 mL/min/kg | predicted hepatic clearance in mouse, CLhep [5]: 44.0 mL min^–1 kg^–1 | activity versus mGlu1–6,8 (mGlu1–6,8): > 10 µM | number of marbles buried (mice [6]; 3 mg/kg, 3 mg/kg): decreased the number of marbles buried; also recorded: reduced the number of marbles buried | predicted unbound levels (CSF concentrations) above the in vitro IC50 (30 mg/kg; at modest doses): ~ 4 fold | [brain]tot (30 mg/kg; rat, 30 mg/kg ip): 745 nM | [plasma]tot (30 mg/kg; rat, 30 mg/kg ip): 598 nM | levels in CSF (30 mg/kg; rat, 30 mg/kg ip): 1300 nM

COc1ccc(C(=O)Nc2cc(OC(F)(F)F)ccc2-n2cncn2)cc1OC [compound 5]
blocking high-frequency-stimulated LTP in the hippocampus [7]: robust efficacy

CNCCC(Oc1ccc(C(F)(F)F)cc1)c1ccccc1 (centres unmarked) [fluoxetine, reference compound]
total time spent in the light side of the chamber (mice [3]; 15 mg/kg ip): increased total time spent in the light side of the chamber | number of marbles buried (mice [6]; fluoxetine 15 mg/kg): decreased the number of marbles buried
